Data: US20050148653A1, “Polymaleimide compounds and their medical use” (priority 2001, published 2005)
Like-named read-outs stand apart in the source and are kept apart here.

Key:
HIV (IHV-1RF) = experiment: Anti-viral (virucidal) assay: plate-bound HIV treated 10 minutes, C8166 cells added, syncytium score and XTT; assay type: cell-based; settings: for Syncytia score day 5 (quadruplicate wells) / Syncytia score day 6 (quadruplicate wells): C8166 cells; for Mean Optical Readings at 450 nm: XTT cell viability
Protocol: HIV was attached to the surface of 96-well cell culture plates using 100 μl of 50 μg/ml poly-L-lysine hydrobromide (PLL) of molecular weight >300 K for 1 h at RT. The outer wells were left uncoated and filled with 250 μl of PBS to counteract the effects of evaporation. The coated wells were washed twice with PBS and 25 μl of RPMI 1640 medium containing 5×10^3 TCID50 of IHV-1RF was added and incubated for 1 h at RT. The wells were then washed twice with PBS and 25 μl of varying concentrations of the test compounds made up with serum free medium (containing a constant 10% DMSO) were added to the wells in quadruplicate and the plates incubated at 37° C. for 10 minutes. The wells were again washed twice with PBS and 5×10^4 C8166 cells in a volume of 300 μl distributed to each well and the plates incubated for 5 and 6 days respectively. On days 5 and 6 the cells were assessed microscopically for the presence of cytopathic effect (syncytium formation) and recorded. In order to quantify the cytopathic effect, XIT which is metabolised by viable but not dead cells, was added and the absorbance read at 450 nm after […] incubation at 37° C.
An assessment of viral cytopathic effect was made microscopically on days 5 and 6, but the end point of the experiment was on day 6 when the level of virus infection (as determined by cell viability) was quantified by the use of XTT.

Chlamydia trachomatis = experiment: Chlamydia assay: transient treatment of Chlamydia with maleimides, infection of McCoy cells, iodine-stained inclusions counted; assay type: cell-based; settings: for activity relative to bis maleimide equivalent: chlamydia infection of McCoy cells; for IODINE-STAINED INCLUSIONS/FIELD F1: field 1; for IODINE-STAINED INCLUSIONS/FIELD F2: field 2; for IODINE-STAINED INCLUSIONS/FIELD F3: field 3; for IODINE-STAINED INCLUSIONS/FIELD F4: field 4; for IODINE-STAINED INCLUSIONS/FIELD F5: field 5; for MEAN COUNT/FIELD (iodine-stained inclusions): mean of 5 fields; for TOTAL COUNT/FIELDS (iodine-stained inclusions): sum of 5 fields; for COMMENTS: inclusions seen on entire coverslip: re-examined under low power; for inhibition of the infection of McCoy cells with chlamydia: transient exposure of chlamydia to compound
Protocol: Purified Chlamydia trachomatis (250 μl) was added to 250 μl of each compound concentration and the mixtures incubated at room temperature for 5 minutes. The tubes were then centrifuged (15000 rpm, 15 minutes), the supernatant decanted and the pellet washed serum free MEM (with 0.5 mls). This step was repeated and the resultant pellet resuspended MEM (in 0.5 ml) and inoculated into a confluent shell vial (coverslip) cultures of McCoy cells. The cultures were centrifuged (3000 rpm, 1 hour at 37° C.) and incubated for a further 2 hours prior to being changed onto MEM with 10% foetal calf serum, I μg/rl cycloheximide, 0.5% added glucose, vancomycin, streptomycin and amphoteracin B (Fungizone). The cultures were incubated for 68 hours, fixed in methanol and stained with Lugol's iodine. 3 replicates of each positive control (with and without DMSO) were included, as well as 2 uninoculated cell controls. Each coverslip culture was examined using low power (10×) objective to ensure that inclusions were evenly distributed and 5 high power (×40) fields were selected at random from different areas of the coverslip. Iodine stained inclusions were counted. Where no inclusions were seen on high power, the culture was re-examined under low power. Table 1. Effect of Transient Treatment with maleimides on Chlamydia Infection of McCoy Cell In Vitro. Chlamydia was pre-treated with each of the indicated maleimides for 5 minutes and the compound removed by centrifugation. McCoy cells were then exposed to the compound pre-treated chlamydia for 68 hours and inclusions counted following staining of cells with Lugols iodine.

[1] = final conc 0.02 (M), working conc 0.04 (M)
[2] = final conc 0.4 (M), working conc 0.8 (M)
[3] = final conc 1 (M), working conc 2 (M), 5 minutes pre-treatment, McCoy cells 68 hours
[4] = final conc 1 (M), working conc 2 (M)

Structure (SMILES): COCCOCCOCCOCCOc1ccc(N2C(=O)C=CC2=O)cc1 [Compound 3, PEG(5) phenyl maleimide]
- Syncytia score day 5 (quadruplicate wells) (HIV (IHV-1RF); Conc 0.003 mM): ++++ (50-100% syncytia)
- Syncytia score day 6 (quadruplicate wells) (HIV (IHV-1RF); Conc 0.003 mM, day 6): ++++ (50-100% syncytia)
- Mean Optical Readings at 450 nm (HIV (IHV-1RF); Conc 0.003 mM, day 6): 0.5018
- Syncytia score day 5 (quadruplicate wells) (HIV (IHV-1RF); Conc 0.01 mM): +++ (25-50% syncytia)
- Syncytia score day 6 (quadruplicate wells) (HIV (IHV-1RF); Conc 0.01 mM, day 6): ++++ (50-100% syncytia)
- Mean Optical Readings at 450 nm (HIV (IHV-1RF); Conc 0.01 mM, day 6): 0.5085
- Syncytia score day 5 (quadruplicate wells) (HIV (IHV-1RF); Conc 0.03 mM): +++ (25-50% syncytia)
- Syncytia score day 6 (quadruplicate wells) (HIV (IHV-1RF); Conc 0.03 mM, day 6): ++++ (50-100% syncytia)
- Mean Optical Readings at 450 nm (HIV (IHV-1RF); Conc 0.03 mM, day 6): 0.5012
- Syncytia score day 5 (quadruplicate wells) (HIV (IHV-1RF); Conc 0.1 mM): +++ (25-50% syncytia)
- Syncytia score day 6 (quadruplicate wells) (HIV (IHV-1RF); Conc 0.1 mM, day 6): ++++ (50-100% syncytia)
- Mean Optical Readings at 450 nm (HIV (IHV-1RF); Conc 0.1 mM, day 6): 0.5118
- Syncytia score day 5 (quadruplicate wells) (HIV (IHV-1RF); Conc 0.3 mM): +++ (25-50% syncytia)
- Syncytia score day 6 (quadruplicate wells) (HIV (IHV-1RF); Conc 0.3 mM, day 6): ++++ (50-100% syncytia)
- Mean Optical Readings at 450 nm (HIV (IHV-1RF); Conc 0.3 mM, day 6): 0.5092
- Syncytia score day 5 (quadruplicate wells) (HIV (IHV-1RF); Conc 1 mM): +++ (25-50% syncytia)
- Syncytia score day 6 (quadruplicate wells) (HIV (IHV-1RF); Conc 1 mM, day 6): +++ (25-50% syncytia)
- Mean Optical Readings at 450 nm (HIV (IHV-1RF); Conc 1 mM, day 6): 0.5268
- IC50 (HIV (IHV-1RF); Human immunodeficiency virus 1, C8166, XTT, day 6, virus treated 10 minutes, read-out: IC50 (virucidal)): > 1000 µM
- virucidal activity (HIV (IHV-1RF); at concentrations up to 1.0 mM): no virucidal activity
- activity relative to bis maleimide equivalent (Chlamydia trachomatis): less active than its PEG bis (phenyl maleimide) equivalent
- IODINE-STAINED INCLUSIONS/FIELD F1 (Chlamydia trachomatis; [1]): 12 inclusions/field
- IODINE-STAINED INCLUSIONS/FIELD F2 (Chlamydia trachomatis; [1]): 24 inclusions/field
- IODINE-STAINED INCLUSIONS/FIELD F3 (Chlamydia trachomatis; [1]): 9 inclusions/field
- IODINE-STAINED INCLUSIONS/FIELD F4 (Chlamydia trachomatis; [1]): 29 inclusions/field
- IODINE-STAINED INCLUSIONS/FIELD F5 (Chlamydia trachomatis; [1]): 22 inclusions/field
- MEAN COUNT/FIELD (iodine-stained inclusions) (Chlamydia trachomatis; [1]): 19 inclusions/field
- TOTAL COUNT/FIELDS (iodine-stained inclusions) (Chlamydia trachomatis; [1]): 96
- IODINE-STAINED INCLUSIONS/FIELD F1 (Chlamydia trachomatis; [2]): 4 inclusions/field
- IODINE-STAINED INCLUSIONS/FIELD F2 (Chlamydia trachomatis; [2]): 7 inclusions/field
- IODINE-STAINED INCLUSIONS/FIELD F3 (Chlamydia trachomatis; [2]): 5 inclusions/field
- IODINE-STAINED INCLUSIONS/FIELD F4 (Chlamydia trachomatis; [2]): 8 inclusions/field
- IODINE-STAINED INCLUSIONS/FIELD F5 (Chlamydia trachomatis; [2]): 4 inclusions/field
- MEAN COUNT/FIELD (iodine-stained inclusions) (Chlamydia trachomatis; [2]): 6 inclusions/field
- TOTAL COUNT/FIELDS (iodine-stained inclusions) (Chlamydia trachomatis; [2]): 28
- IODINE-STAINED INCLUSIONS/FIELD F1 (Chlamydia trachomatis; [3]): 0 inclusions/field
- IODINE-STAINED INCLUSIONS/FIELD F2 (Chlamydia trachomatis; [4]): 0 inclusions/field
- IODINE-STAINED INCLUSIONS/FIELD F3 (Chlamydia trachomatis; [4]): 0 inclusions/field
- IODINE-STAINED INCLUSIONS/FIELD F4 (Chlamydia trachomatis; [4]): 0 inclusions/field
- IODINE-STAINED INCLUSIONS/FIELD F5 (Chlamydia trachomatis; [4]): 0 inclusions/field
- MEAN COUNT/FIELD (iodine-stained inclusions) (Chlamydia trachomatis; [4]): 0 inclusions/field
- COMMENTS: inclusions seen on entire coverslip (Chlamydia trachomatis; [4]): 15
- TOTAL COUNT/FIELDS (iodine-stained inclusions) (Chlamydia trachomatis; [4]): 0
- inhibition of the infection of McCoy cells with chlamydia (Chlamydia trachomatis): dose-dependent inhibition

Structure (SMILES): CCN1C(=O)C=CC1=O [Compound 4, Ethyl maleimide]
- Syncytia score day 5 (quadruplicate wells) (HIV (IHV-1RF); Conc 0.01 mM): ++++ (50-100% syncytia)
- Syncytia score day 6 (quadruplicate wells) (HIV (IHV-1RF); Conc 0.01 mM, day 6): ++++ (50-100% syncytia)
- Mean Optical Readings at 450 nm (HIV (IHV-1RF); Conc 0.01 mM, day 6): 0.48
- Syncytia score day 5 (quadruplicate wells) (HIV (IHV-1RF); Conc 0.03 mM): ++++ (50-100% syncytia)
- Syncytia score day 6 (quadruplicate wells) (HIV (IHV-1RF); Conc 0.03 mM, day 6): ++++ (50-100% syncytia)
- Mean Optical Readings at 450 nm (HIV (IHV-1RF); Conc 0.03 mM, day 6): 0.4915
- Syncytia score day 5 (quadruplicate wells) (HIV (IHV-1RF); Conc 0.1 mM): ++++ (50-100% syncytia)
- Syncytia score day 6 (quadruplicate wells) (HIV (IHV-1RF); Conc 0.1 mM, day 6): ++++ (50-100% syncytia)
- Mean Optical Readings at 450 nm (HIV (IHV-1RF); Conc 0.1 mM, day 6): 0.5048
- Syncytia score day 5 (quadruplicate wells) (HIV (IHV-1RF); Conc 0.3 mM): ++++ (50-100% syncytia)
- Syncytia score day 6 (quadruplicate wells) (HIV (IHV-1RF); Conc 0.3 mM, day 6): ++++ (50-100% syncytia)
- Mean Optical Readings at 450 nm (HIV (IHV-1RF); Conc 0.3 mM, day 6): 0.502
- Syncytia score day 5 (quadruplicate wells) (HIV (IHV-1RF); Conc 1 mM): +++ (25-50% syncytia)
- Mean Optical Readings at 450 nm (HIV (IHV-1RF); Conc 1 mM, day 6): 0.5275
- Syncytia score day 5 (quadruplicate wells) (HIV (IHV-1RF); Conc 3 mM): 0
- Syncytia score day 6 (quadruplicate wells) (HIV (IHV-1RF); Conc 3 mM, day 6): 0
- Mean Optical Readings at 450 nm (HIV (IHV-1RF); Conc 3 mM, day 6, No Virus 1.84955, Virus Control 0.5091): 1.6305
- IC50 (HIV (IHV-1RF); Human immunodeficiency virus 1, C8166, read-out: IC50 (virucidal)): 1900 µM
- activity relative to bis maleimide equivalent (Chlamydia trachomatis): less active than its bis maleimide equivalent
- IODINE-STAINED INCLUSIONS/FIELD F1 (Chlamydia trachomatis; [1]): 1 inclusions/field
- IODINE-STAINED INCLUSIONS/FIELD F2 (Chlamydia trachomatis; [1]): 11 inclusions/field
- IODINE-STAINED INCLUSIONS/FIELD F3 (Chlamydia trachomatis; [1]): 6 inclusions/field
- IODINE-STAINED INCLUSIONS/FIELD F4 (Chlamydia trachomatis; [1]): 4 inclusions/field
- IODINE-STAINED INCLUSIONS/FIELD F5 (Chlamydia trachomatis; [1]): 2 inclusions/field
- MEAN COUNT/FIELD (iodine-stained inclusions) (Chlamydia trachomatis; [1]): 5 inclusions/field
- TOTAL COUNT/FIELDS (iodine-stained inclusions) (Chlamydia trachomatis; [1]): 24
- IODINE-STAINED INCLUSIONS/FIELD F1 (Chlamydia trachomatis; [2]): 0 inclusions/field
- IODINE-STAINED INCLUSIONS/FIELD F2 (Chlamydia trachomatis; [2]): 0 inclusions/field
- IODINE-STAINED INCLUSIONS/FIELD F3 (Chlamydia trachomatis; [2]): 0 inclusions/field
- IODINE-STAINED INCLUSIONS/FIELD F4 (Chlamydia trachomatis; [2]): 0 inclusions/field
- IODINE-STAINED INCLUSIONS/FIELD F5 (Chlamydia trachomatis; [2]): 0 inclusions/field
- MEAN COUNT/FIELD (iodine-stained inclusions) (Chlamydia trachomatis; [2]): 0 inclusions/field
- COMMENTS: inclusions seen on entire coverslip (Chlamydia trachomatis; [2]): No
- TOTAL COUNT/FIELDS (iodine-stained inclusions) (Chlamydia trachomatis; [2]): 0
- IODINE-STAINED INCLUSIONS/FIELD F1 (Chlamydia trachomatis; [3]): 0 inclusions/field
- IODINE-STAINED INCLUSIONS/FIELD F2 (Chlamydia trachomatis; [4]): 0 inclusions/field
- IODINE-STAINED INCLUSIONS/FIELD F3 (Chlamydia trachomatis; [4]): 0 inclusions/field
- IODINE-STAINED INCLUSIONS/FIELD F4 (Chlamydia trachomatis; [4]): 0 inclusions/field
- IODINE-STAINED INCLUSIONS/FIELD F5 (Chlamydia trachomatis; [4]): 0 inclusions/field
- MEAN COUNT/FIELD (iodine-stained inclusions) (Chlamydia trachomatis; [4]): 0 inclusions/field
- COMMENTS: inclusions seen on entire coverslip (Chlamydia trachomatis; [4]): No
- TOTAL COUNT/FIELDS (iodine-stained inclusions) (Chlamydia trachomatis; [4]): 0
- inhibition of the infection of McCoy cells with chlamydia (Chlamydia trachomatis): dose-dependent inhibition
